In US20100227828A1, “NEW SYNERGISTIC PHYTOCHEMICAL COMPOSITION FOR THE TREATMENT OF OBESITY” (LAILA NUTRACEUTICALS, priority 2007, published 2010):

How the values were obtained:
5-lipoxygenase = experiment: 5-Lipoxygenase inhibitory activity, colorimetric method; format: biochemical
Experimental: The new dietary/pharmaceutical supplement compositions are screened for their 5-lipoxygenase inhibitory potential using colorimetric method. The assay mixture contained 50 mM phosphate buffer (pH 6.3), 5-lipoxygenase, various concentrations of test composition (5 μg, 10 μg, 20 μg) in dimethylsulphoxide and linolenic acid in a total volume of 0.5 mL, after 5 min incubation of above reaction mixture 0.5 mL ferric xylenol orange reagent is added and OD is measured after two minutes at 585 nm using spectrophotometer. Controls are run along with test in a similar manner except using vehicle instead of test substance solution. Percent inhibition is calculated by comparing absorbance of the test solution with that of control.

[1] = Protective effect against diet induced obesity in rats; format: in vivo, Sprague-Dawley rats; conditions: 7 mg/kg oral per day, 8 weeks with high fat diet
Experimental: Selected healthy Sprague-Dawley rats were randomly assigned to control or various treatment groups (n=6). All the animals allocated for protective phase of the study were on dietary intervention by feeding high fat diet ad libitum and the animals allocated to treatment groups were simultaneously given oral administration of 250 mg/kg of composition-1 or 7 mg/kg sibutramine per day in […] of 0.5% CMC, using gastric tube for the entire 8 week study duration. The test animals of the control group were simultaneously given 10 ml/kg of 0.5% CMC. Food and water consumption were recorded daily, body weights were recorded weekly and fasting blood samples were collected before initiation, after 4th week and 8th week (termination) of the study.

SMILES	% of inhibition (5-Lipoxygenase) (5-lipoxygenase; 5 μg) [%]	% of inhibition (5-Lipoxygenase) (5-lipoxygenase; 10 μg) [%]	reduction in weight gain [1] [%]
C[C@H](Cc1ccc(O)c(O)c1)[C@@H](C)Cc1ccc(O)c(O)c1 [NDGA, Nordihydroguiaretic acid]	50.2	77.35	
CC(C)CC(N(C)C)C1(c2ccc(Cl)cc2)CCC1 (stereo not drawn) [sibutramine]			28.2
